Data reported in patent US20100062131A1, “FLAVAN-3-OL CONTAINING FOODSTUFFS” (CONOPCO, INC., D/B/A UNILEVER, priority 2008, published 2010).

Target: T1, human bitter receptor TAS2R39 (Homo sapiens, UniProt P59534)
T1 construct: expressed in transfected cells; host or cells: HEK293 (tetracycline/doxycycline-inducible expression; blasticidin, geneticin and hygromycin selection)
T1 sequence (P59534 1-338): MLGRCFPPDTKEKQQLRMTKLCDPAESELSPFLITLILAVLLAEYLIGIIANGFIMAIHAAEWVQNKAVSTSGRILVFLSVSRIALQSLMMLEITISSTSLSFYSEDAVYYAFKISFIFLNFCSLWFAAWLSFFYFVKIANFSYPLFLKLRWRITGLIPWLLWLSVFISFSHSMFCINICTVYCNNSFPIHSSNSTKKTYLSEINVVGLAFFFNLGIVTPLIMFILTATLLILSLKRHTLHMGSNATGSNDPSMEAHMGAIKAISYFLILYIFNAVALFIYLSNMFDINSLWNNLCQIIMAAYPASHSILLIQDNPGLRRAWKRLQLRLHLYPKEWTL
Experiment: Inhibition of ECG stimulation of TAS2R39, intracellular calcium (Fluo4-AM fluorescence) assay
Assay type: cell-based
Conditions: for % inhibition of TAS2R39: HEK293 cells expressing TAS2R39, test solution 0.5 mM ECG and 10 mM test compound in Tyrodes buffer, percentage reduction of ΔF vs ECG alone; for effectiveness as inhibitor of TAS2R39 compared with gallic acid: comparison of % inhibition in Table 1 with gallic acid
Source text: Activation of the bitter receptor TAS2R39 causes the release of calcium from the endoplasmic reticulum of those cells containing the receptor. Therefore, changes in calcium levels within cells expressing TAS2R39 serves as a proxy marker for the activity of the receptor. An assay was used to assess the stimulation of TAS2R39 by the flavan-3-ol epicatechin gallate (ECG) and to assess the inhibition of this stimulation of TAS2R39 through the use of various compounds as follows:
HEK293 cells expressing the human bitter receptor TAS2R39 and a G-protein that allows coupling to a calcium readout system were maintained in Dulbecco's Modified Eagle's Medium (DMEM) containing DMEM and 10% tetracycline-free fetal bovine serum (Cambrex) supplemented with blasticidin (5 μg/ml) geneticin (400 μg/ml) and hygromycin (100 μg/ml). Cells were grown and maintained at 37° C./5% CO2.
Cells were cultured in a 75 cm^2 flask, harvested by trypsinisation and resuspended in DMEM medium. 100 μl of cells per well were added to a poly-L-lysine coated μClear 96-well plate, and incubated overnight. Expression of the TAS2R39 gene was then induced by the addition of 100 μl DMEM medium containing 0.5 μg/ml doxycyclin. After another 24-30 hrs the medium was removed and the cells were loaded for 1 hour with 50 μl Tyrodes buffer (140 mM NaCl, 5 mM KCl, 10 mM glucose, 1 mM CaCl2.2H2O, 1 mM MgCl2.6H2O, 20 mM HEPES pH 7.4 (Sigma P8761)) containing 2.5 μM of the fluorescent marker of calcium, Fluo4-AM, followed by a 1-hr incubation at 37° C. The cells were then washed with Tyrodes buffer and finally taken up in 100 μl, Tyrodes buffer.
Test solutions containing 0.5 mM ECG and 10 mM of the test compounds, dissolved in Tyrodes buffer, were prepared and 100 μl of each test solution was added to the wells of the 96-well plate containing the cells. A comparative solution containing only 0.5 mM ECG dissolved in Tyrodes buffer was also prepared and 100 μl was added to a well of the 96-well plate containing the cells.
Intracellular calcium levels were monitored using a Flexstation II 384. The 96-well plate was loaded onto the Flexstation II 384 and fluorescence measurements were carried out at 37° C. at an excitation wavelength of 485 nm and an emission wavelength of 520 nm. Activity of TA52R39 was measured as the change in fluorescence (ΔF) which was calculated by subtracting the […] measured before addition of the test or comparative solution.
Inhibition of TAS2R39 activity was measured as the percentage reduction of ΔF in the presence of ECG alone, compared to ΔF in the presence of ECG plus a test compound. 3,4,5-trihydroxybenzoic acid (gallic acid) was included in the selection of the test compounds.

Row | Compound | % inhibition of TAS2R39 [%] | effectiveness as inhibitor of TAS2R39 compared with gallic acid
1 | O=C(O)c1ccc(O)c(O)c1 [3,4-dihydroxybenzoic acid, reference compound] | 15 | –
2 | COc1ccc(CC(=O)O)cc1 [4-methoxyphenylacetic acid, reference compound] | 15 | –
3 | O=C(O)CCc1ccc(O)cc1 [3-(4-hydroxyphenyl) propanoic acid, reference compound] | 25 | –
4 | O=C(O)Cc1ccc(O)cc1 [4-hydroxyphenylacetic acid, reference compound] | 20 | –
5 | COc1ccccc1/C=C/C(=O)O [2-methoxycinnamic acid, reference compound] | 0 | –
6 | COc1cc(/C=C/C(=O)O)cc(OC)c1OC [3,4,5-trimethoxycinnamic acid, 3,4,5-trimethoxycinnamic acid] | 70 | more effective inhibitors of TAS2R39 than gallic acid
7 | COc1ccc(/C=C/C(=O)O)c(OC)c1 [2,4-dimethoxycinnamic acid] | 40 | more effective inhibitors of TAS2R39 than gallic acid
8 | O=C(O)c1ccc(O)cc1 [4-hydroxybenzoic acid, reference compound] | 25 | –
9 | N[C@@H](Cc1ccccc1)C(=O)O [Phenylalamine, reference compound] | 0 | –
10 | COc1cc(C(=O)O)cc(OC)c1OC [3,4,5-trimethoxybenzoic acid, reference compound] | 20 | –
11 | O=C(O)/C=C/c1ccc(O)c(O)c1 [3,4-dihydroxycinnamic acid] | 30 | more effective inhibitors of TAS2R39 than gallic acid
12 | O=C(O)CCc1ccccc1 [3-phenylpropanoic acid, reference compound] | 15 | –
13 | COc1cc(CCC(=O)O)ccc1O [3-(3-methoxy-4-hydroxyphenyl)propanoic acid] | 35 | more effective inhibitors of TAS2R39 than gallic acid
14 | O=C(O)/C=C/c1ccc(O)cc1 [4-hydroxycinnamic acid] | 40 | more effective inhibitors of TAS2R39 than gallic acid
15 | O=C(O)Cc1ccccc1 [Phenylacetic acid, reference compound] | 5 | –
16 | O=C(O)CCCc1ccccc1 [4-phenylbutanoic acid] | 40 | more effective inhibitors of TAS2R39 than gallic acid
17 | COc1ccc(/C=C/C(=O)O)cc1 [4-methoxycinnamic acid] | 30 | more effective inhibitors of TAS2R39 than gallic acid
18 | COc1ccc(CCC(=O)O)cc1 [3-(4-methoxyphenyl) propanoic acid, 3-(4-methoxyphenyl)propanoic acid] | 40 | more effective inhibitors of TAS2R39 than gallic acid

Row | Compound | % inhibition of TAS2R39 [%] | effectiveness as inhibitor of TAS2R39 compared with gallic acid
19 | Benzoic acid [reference compound] | 20 | –
20 | COc1ccc(C(=O)O)cc1OC [3,4-dimethoxybenzoic acid, reference compound] | 10 | –
21 | O=C(O)c1cc(O)c(O)c(O)c1 [3,4,5-trihydroxybenzoic acid, reference compound] | 25 | –
22 | COc1ccc(CCC(=O)O)cc1OC [3-(3,4-dimethoxyphenyl) propanoic acid, 3-(3,4-dimethoxyphenyl)propanoic acid] | 35 | more effective inhibitors of TAS2R39 than gallic acid
23 | COc1cc(CC(=O)O)cc(OC)c1OC [3,4,5-trimethoxyphenylacetic acid, reference compound] | 25 | –
24 | COc1cccc(C(=O)O)c1O [2-hydroxy-3-methoxybenzoic acid, reference compound] | 25 | –
25 | COc1cc(/C=C/C(=O)O)ccc1O [3-methoxy-4-hydroxycinnamic acid, 3-methoxy-4-hydroxycinnamic acid] | 65 | more effective inhibitors of TAS2R39 than gallic acid
26 | COc1cccc(C(=O)O)c1 [3-methoxybenzoic add, reference compound] | 5 | –
27 | COc1cccc(/C=C/C(=O)O)c1 [3-methoxycinnamic acid, reference compound] | 0 | –
28 | COc1cc(CCC(=O)O)cc(OC)c1OC [3-(3,4,5-trimethoxyphenyl)propanoic acid] | 35 | more effective inhibitors of TAS2R39 than gallic acid
29 | O=C(O)/C=C/c1ccccc1 [3-phenyl propenoic acid (Cinnamic acid), 3-phenyl propenoic acid] | 40 | more effective inhibitors of TAS2R39 than gallic acid
30 | COc1ccc(/C=C/C(=O)O)cc1OC [3,4-dimethoxycinnamic acid] | – | more effective inhibitors of TAS2R39 than gallic acid
31 | O=C(O)Cc1ccc(O)c(O)c1 [3,4-dihydroxyphenylacetic acid, reference compound] | 15 | –
32 | O=C(O)CCc1ccc(O)c(O)c1 [3-(3,4-dihydroxyphenyl) propanoic acid, 3-(3,4-dihydroxyphenyl)propanoic acid] | 30 | more effective inhibitors of TAS2R39 than gallic acid
33 | COc1cc(/C=C/C(=O)O)cc(OC)c1O [4-hydroxy-3,5-dimethoxycinnamic acid, 4-hydroxy-3,5-dimethoxycinnamic acid] | 65 | more effective inhibitors of TAS2R39 than gallic acid
34 | COc1cc(/C=C/C(=O)O)cc(OC)c1 [3,5-dimethoxycinnamic acid, reference compound] | 20 | –
35 | COc1ccccc1C(=O)O [2-methoxybenzoic acid, reference compound] | 10 | –
36 | COc1ccc(C(=O)O)cc1 [4-methoxybenzoic acid, reference compound] | 15 | –
